Where two headings read alike, the source gives them in different places. Blank lines part the entries; values can stand above or below the molecule they belong to.
Key:
[1] = Phase 1b clinical study: plasma pharmacokinetics after single and multiple once-daily oral doses of AV-101; details: human plasma
Method: (§1) A Phase 1b, single-site, randomized, double-blind, placebo-controlled, study was conducted involving multiple oral doses of AV-101 in healthy male and female subjects. Subjects were randomized into one of three cohorts (360, 1,080, and 1,440 mg) and received a daily oral dose for 14 consecutive days. […] The safety, pharmacokinetics (PK), tolerability of treatment, and antihyperalgesic effect of AV-101 on capsaicin-induced hyperalgesia were assessed.
(§2) Blood was collected in 6-mL lithium heparin Vacutainer tubes. Samples were centrifuged, and the plasma was separated from the cells and frozen within 30 minutes after centrifugation. Centrifuged samples were placed on ice until they were placed in the freezer. Plasma samples were stored frozen at approximately −20° C. until their shipment to a contractor for analysis.
(§3) Baseline samples (0 minutes) were collected before the drug was administered on Day 1 and on Day 14. Samples were then collected at 0.5, 1, 1.5, 2, 4, 6, 8, 12, and 24 hours after dosing on Day land Day 14.
(§4) Both assays used a plasma sample volume of 50.0 μL.

[2] = target: glycine B (GlyB) coagonist site on the NMDA-R (Homo sapiens, UniProt Q05586); details: cited from earlier work
[3] = tested on: excitotoxic and ischemic neuronal damage; details: cited from earlier work
[4] = after administration; cited from earlier work
[5] = tested on: peripheral tissue inflammation and nerve injury; assay: Animal models of peripheral tissue inflammation and nerve injury; assay type: in vivo
[6] = human, in vivo, po
Method: as §1, §2, §3, §4

[7] = Safety and tolerability in humans (clinical study); assay type: in vivo, human; details: certain doses (360, 1,080, 1,440 mg daily oral)
Method: The compound is an antihyperalgesic.
“Without significant adverse effect” means that substantially all patients to whom L-4-chlorokynurenine is administered will have no more than a “mild” adverse event as defined by the U.S. Food and Drug Administration (FDA). The FDA defines a “mild adverse event” as an event that is easily tolerated by the subject, causing minimal discomfort and not interfering with everyday activities. In contrast, a “moderate adverse event” is an event that is sufficiently discomforting causing it to interfere with normal everyday activities.

seizures = details: rats, preclinical studies (Reference 11); cited from earlier work
activated astrocytes = details: within activated astrocytes (Reference 5); cited from earlier work
[8] = Reported feelings of well-being (anti-depressive activity) in the clinical study; assay type: in vivo, human; details: zero subjects in the placebo group
Excerpt: In the clinical study described in this application, 5 out of 26 subjects (as contrasted with zero subjects in the placebo group) affirmatively reported feelings of well being. This is consistent with reports that the glutamatergic system contributes to the pathophysiology of depression and that stress can induce changes in NMDA receptors. See, for example, Calabrese et al. “Stress-Induced Changes of Hippocampal NMDA Receptors: Modulation by Duloxetine Treatment,” PLoS ONE 2012, 7(5): e37916. doi:10.1371/journal.pone.0037916.

[9] = tested on: capsaicin-induced hyperalgesia; assay: Antihyperalgesic effect on capsaicin-induced hyperalgesia (VAS pain assessments) in Phase 1b study; assay type: in vivo, human
Method: On Day 1 and Day 14 of the clinical study, two intradermal injections of 250 μg of capsaicin were injected sequentially into the volar aspect of alternate forearms to produce burning pain, secondary hyperalgesia, and a flare. The capsaicin USP (United States Pharmacopeia) was prepared according to the site's standard procedure and dissolved in 20% cyclodextrin at a concentration of 10 mg/mL.
The first capsaicin injection in one forearm was given 1 hour after oral administration of AV-101 or placebo, and the second capsaicin injection was given in the other forearm 2 hours after the administration of AV-101 or placebo. The neurosensory testing began immediately at each capsaicin injection. The serial pain assessments using a 100-mm visual analog scale (VAS) occurred at preinjection and 0, 5, 10, 15, 30, 45, and 60 minutes after each capsaicin injection. The examiner asked the subject to rate the intensity by using the VAS of the spontaneous pain and elicited pain from the application of a 5.18 von Frey hair, 40° C. probe, and gentle stroking with a 1-inch foam brush. The VAS consisted of a 100-mm line with “no pain” written at the 0-mm end and the “worst imaginable pain” written at the 100-mm end. The distance in millimeters provided the pain measurement.
At least eight determinations of the hyperalgesic area borders were made using the same assessments and starting at different angles. Additionally, subjects were asked to rate the pain intensity of a 1-minute 45° C. heat stimulus (brief thermal stimulation) applied to the anterior thigh at 4.5 hours (±5 minutes) after study drug administration, then every 30 minutes (±5 minutes) through 6 hours after study drug administration. A radiant temperature probe was applied to fix the skin temperature at 36° C. during the pain assessments. Subjects used the VAS for all pain assessments.
All study assessment time points were anchored to Time 0, the time of study drug administration. For the capsaicin injection at 1 hour after dosing, the assessment interval (i.e., time after dosing of the study drug) was 60 to 120 minutes, during which time assessments occurred at approximately 60, 65, 70, and 75 minutes and then every 15 minutes through the 120-minute time point (i.e., 0, 5, 10, 15, 30, 45, and 60 minutes after capsaicin injection). The second injection of capsaicin was administered approximately 2 hours after dosing of the clinical trial material (CTM), and the assessment interval (i.e., time after dosing of the CTM) was 120 to 180 minutes. The serial pain assessments followed the same schedule, as described after the first capsaicin injection.
The primary efficacy endpoint was the analgesic response to spontaneous pain at each dose level of AV-101 120 to 180 minutes after dosing on Day 14.

dopaminergic neurons = details: brains of rats (Reference 7); cited from earlier work
[10] = Day 1, after 1,440-mg oral dose of L-4-chlorokynurenine

SMILES: O=C(O)c1cc(O)c2ccc(Cl)cc2n1 [7-chlorokynurenic acid]
Mean 7-chlorokynurenic acid Cmax ([1]; Day 1, after 360-mg oral dose of L-4-chlorokynurenine): 42.7 ng/mL
Mean 7-chlorokynurenic acid AUCO-t [1, 10]: 985 ng·b/mL
Mean 7-chlorokynurenic acid Cmax [1, 10]: 314 ng/mL
Mean 7-chlorokynurenic acid AUCO-t ([1]; Day 1, after lowest dose (360 mg) of L-4-chlorokynurenine): 156 ng·h/mL
Dose linearity of mean 7-chlorokynurenic acid Cmax and AUCO-t ([1]; after oral L-4-chlorokynurenine 360 to 1,440 mg): approximately dose linear
Mean Cmax and AUCO-t of 7-chlorokynurenic acid on Day 14 compared with Day 1 ([1]; once-daily oral L-4-chlorokynurenine for 14 days): slightly lower on Day 14 than those on Day 1
GlyB antagonist potency and specificity [2]: One of the most potent and specific GlyB antagonists
Prevention of excitotoxic and ischemic neuronal damage [3]: prevent excitotoxic and ischemic neuronal damage
Crossing of the blood-brain barrier / access to the CNS [4]: does not cross the blood-brain barrier

Mean L-4-chlorokynurenine AUCO-t [6]: 196000 ng·h/mL
Mean L-4-chlorokynurenine Tmax [6]: ~2 h
Mean t½ of L-4-chlorokynurenine [6]: 1.64 to 1.82 h
Mean L-4-chlorokynurenine AUCO-t ([6]; 360 mg): 64000 ng·h/mL
SMILES: Nc1cc(Cl)ccc1C(=O)CC(N)C(=O)O [L-4-chlorokynurenine]
Tolerability in animal models ([5]; at doses that produce antihyperalgesic effects): well tolerated
Antihyperalgesic actions in animal models ([5]; three animal models of peripheral tissue inflammation and nerve injury): potent antihyperalgesic actions
Dose linearity of mean L-4-chlorokynurenine Cmax and AUCO-∞ [6]: approximately dose linear, although not proportional
Mean Cmax and AUCO-t of L-4-chlorokynurenine on Day 14 compared with Day 1 [6]: slightly lower on Day 14 than those on Day 1
Safety and tolerability in humans [7]: safe and tolerable in humans without substantial side effects or any significant adverse effects
Anti-seizure activity (seizures): anti-seizure activity
Conversion to 7-chlorokynurenic acid (activated astrocytes): efficiently converted
Subjects affirmatively reporting feelings of well being [8]: 5 out of 26
Least squares means of the AUPC for allodynia pain, mechanical hyperalgesia pain and heat hyperalgesia pain ([9]; 1,080 mg (Cohort 2) versus placebo): consistent decrease
MAXPAIN, Spontaneous Pain ([9]; 1080 mg oral daily, n=13, 100-mm VAS, placebo 77.00): 75.08
MAXPAIN, Allodynia Pain (foam brush) ([9]; 1080 mg oral daily, n=13, 100-mm VAS, placebo 79.50): 70.92
MAXPAIN, Mechanical Allogesia ([9]; 1080 mg oral daily, n=13, 100-mm VAS, placebo 79.75): 66.23
MAXPAIN, Heat Allogesia ([9]; 1080 mg oral daily, n=13, 100-mm VAS, placebo 84.75): 78.85
Secondary efficacy endpoints (AUPC for spontaneous pain, elicited pain from von Frey hair and 40° C. probe) ([9]; 120 to 180 minutes Day 1, 60 to 180 minutes Days 1 and 14, versus placebo): no significant changes
Area under the pain time curve (AUPC) for spontaneous pain, primary efficacy endpoint ([9]; each dose level, 120 to 180 minutes after dosing on Day 14, versus placebo): no significant change
Subject-reported relief from neuropathic pain, specifically hyperalgesia pain ([9]; humans, at the clinical dosages): subjects reported relief from neuropathic pain
Crossing of the blood-brain barrier / access to the CNS [4]: readily gains access to the central nervous system
Firing rate and burst firing activity of dopaminergic neurons (dopaminergic neurons): increase the firing rate and burst firing activity

Reference: patent publication US9993453B2, “Dosage forms and therapeutic uses L-4-chlorokynurenine” (VISTAGEN THERAPEUTICS, INC., priority 2013, dated 2018)
